For 20 compounds, IC50 results are on record in patent US11555042B2, “Macrocyclic compounds as TRK kinases inhibitors” (FOCHON BIOSCIENCES, LTD., priority 2018, dated 2023).

One experiment has as its system KM12 cells. Kind of experiment: KM12 cells proliferation inhibition (MTS), mechanism-based assay for TRK. It counts as cell-based. The note with it: 72 h. The source says: MTS testing kit was purchased from Promega (Madison, Wis., USA). The RPMI-1640, Fetal bovine serum and Penicillin-Streptomycin were purchased from Gibco (San Francisco, Calif., USA). Dimethyl sulfoxide (DMSO) and Puromycin were purchased from Sigma (St. Louis., Mo., USA). Mouse interleukin-3 (IL-3) was purchased from Cell signaling Technology (Boston, Mass., USA).
To investigate whether a compound is able to inhibit the activity of TRK in cells, a mechanism-based assay using KM12 cells was developed. In this assay, inhibition of TRK was detected by the inhibition of KM12 cells proliferation. KM12 cells were cultured in culture flasks to 40-80% confluence in RPMI-1640 plus 10% fetal bovine serum. Cells were collected and plated onto 96-well plates at 1000 cells/well. Plates were incubated at 37° C., with 5% CO2 for 4 h. Compounds were added to the plates, the final compound concentrations were […], 123.5, 41.2, 13.7, 4.6 and 1.5 nM. Place plates at 37° C., with 5% CO2 for KM12 cells 72 h. 20 μl MTS/100 μl medium mixture solution were added to each well and incubate the plates for exactly 2 h. Stop the reaction by adding 25 μl 10% SDS per well. Measure absorbance at 490 nm and 650 nm (reference wavelength). IC50 was calculated using GraphPad Prism 5.0.
As for `C[C@@H]1CCc2ccc(F)cc2C23CC2CCN3c2ccc3ncc(n3n2)C(=O)N1` (single isomer, unassigned) [Example 33B], the half-inhibitory concentration (IC50) is 1 nM.
`C[C@@H]1CCc2ccc(F)cc2C23CC2CCN3c2ccn3ncc(c3n2)C(=O)N1` (stereo partly drawn) [Example 12B, (1^3E,1^4E,6R)-3^5-fluoro-6-methyl-2^2,7-diaza-1(5,3)-pyrazolo[1,5-a]pyrimidina-2(2,1)-bicyclo[3.1.0]hexana-3(1,2)-benzenacyclooctaphan-8-one] registered a 50% inhibitory concentration (IC50) of 2 nM.

The experiment is the same for the next values; noted with them: Homo sapiens, KM12, 72 h.
Compound `C[C@@H]1CCc2ncc(F)cc2C2(CC2)Nc2ccn3ncc(c3n2)C(=O)N1` [Example 10, (R,3′E,4′E)-5′-fluoro-7′-methylspiro[cyclopropane-1,3′-2,8-diaza-1(5,3)-pyrazolo[1,5-a]pyrimidina-4(3,2)-pyridinacyclononaphan]-9′-one] yielded a concentration for half-maximal inhibition (IC50) of 1 nM.
Turning to `C[C@@H]1COc2ccc(F)cc2C23CC2CCN3c2ccc3ncc(n3n2)C(=O)N1` (stereo partly drawn) [Example 13, (6R,E)-3^5-fluoro-6-methyl-4-oxa-2^2,7-diaza-1(6,3)-imidazo[1,2-b]pyridazina-2(2,1)-bicyclo[3.1.0]hexana-3(1,2)-benzenacyclooctaphan-8-one], inhibition was half-maximal at 1 nM (IC50).
Compound `C[C@H]1CNC(=O)c2cnn3ccc(nc23)NC2(CC2)c2cc(F)ccc2O1` [Example 4, (S,3′E,4′E)-5′-fluoro-6′-methylspiro[cyclopropane-1,3′-5-oxa-2,8-diaza-1(5,3)-pyrazolo[1,5-a]pyrimidina-4(1,2)-benzenacyclononaphan]-9′-one] yielded a 50% inhibitory concentration (IC50) of 1 nM.
With `C[C@@H]1CCc2ncc(F)cc2C23CC2CCN3c2ccc3ncc(n3n2)C(=O)N1` (stereo partly drawn) [Example 35, (6R,E)-3^5-fluoro-6-methyl-2^2,7-diaza-1(6,3)-imidazo[1,2-b]pyridazina-3(3,2)-pyridina-2(2,1)-bicyclo[3.1.0]hexanacyclo-octaphan-8-one], the 50% inhibitory concentration (IC50) amounted to 1 nM.
On the same count and under the same terms, to `C[C@@H]1COc2ccc(F)cc2C2(CC2)N(C)c2ccc3ncc(n3n2)C(=O)N1` [Example 53, (7′R,E)-5′-fluoro-2′,7′-dimethylspiro-[cyclopropane-1,3′-5-oxa-2,8-diaza-1(6,3)-imidazo[1,2-b]pyridazina-4(1,2)-benzenacyclononaphan]-9′-one] belongs 30 nM; to `C[C@@H]1COc2ncc(F)cc2C23CC2CCN3c2ccc3ncc(n3n2)C(=O)N1` (stereo partly drawn) [Example 14, (6R,E)-3^5-fluoro-6-methyl-4-oxa-2^2,7-diaza-1(6,3)-imidazo[1,2-b]pyridazina-3(3,2)-pyridina-2(2,1)-bicyclo[3.1.0]hexanacyclooctaphan-8-one], 1 nM.
On the same count and under the same terms, to `C[C@@H]1COc2ccc(F)cc2C2(CC2)Nc2ccn3ncc(c3n2)C(=O)N1` [Example 2, (R,3′E,4′E)-5′-fluoro-7′-methylspiro[cyclopropane-1,3′-5-oxa-2,8-diaza-1(5,3)-pyrazolo[1,5-a]pyrimidina-4(1,2)-benzenacyclononaphan]-9′-one] belongs 1 nM; to `C[C@H]1CNC(=O)c2cnn3ccc(nc23)NC2(CC2)c2cc(F)cnc2O1` [Example 9, (S,3′E,4′E)-5′-fluoro-6′-methylspiro[cyclopropane-1,3′-5-oxa-2,8-diaza-1(5,3)-pyrazolo[1,5-a]pyrimidina-4(3,2)-pyridinacyclononaphan]-9′-one], 7 nM; to `C[C@H]1CNC(=O)c2cnc3ccc(nn23)N2CCC3CC32c2cc(F)ccc2O1` (stereo partly drawn) [Example 32, (5S,E)-3^5-fluoro-5-methyl-4-oxa-2^2,7-diaza-1(6,3)-imidazo[1,2-b]pyridazina-2(2,1)-bicyclo[3.1.0]hexana-3(1,2)-benzenacyclo-octaphan-8-one], 1 nM.
The same measure, in the same setting: to `C[C@@H]1COc2ncc(F)cc2C23CC2CCN3c2ccn3ncc(c3n2)C(=O)N1` (stereo partly drawn) [Example 6, (1^3E,1^4E,6R)-3^5-fluoro-6-methyl-4-oxa-2^2,7-diaza-1(5,3)-pyrazolo[1,5-a]-pyrimidina-3(3,2)-pyridina-2(2,1)-bicyclo[3.1.0]hexanacyclooctaphan-8-one] belongs 1 nM; to `C[C@@H]1CCc2ncc(F)cc2C23CC2CCN3c2ccn3ncc(c3n2)C(=O)N1` (stereo partly drawn) [Example 5, (1^3E,1^4E,6R)-3^5-fluoro-6-methyl-2^2,7-diaza-1(5,3)-pyrazolo[1,5-a]pyrimidina-3(3,2)-pyridina-2(2,1)-bicyclo[3.1.0]hexanacyclooctaphan-8-one], 1 nM.
Regarding `C[C@@H]1CCc2ccc(F)cc2C23CC2CCN3c2ccn3ncc(c3n2)C(=O)N1` (stereo partly drawn) [Example 12A, (1^3E,1^4E,6R)-3^5-fluoro-6-methyl-2^2,7-diaza-1(5,3)-pyrazolo[1,5-a]pyrimidina-2(2,1)-bicyclo[3.1.0]hexana-3(1,2)-benzenacyclooctaphan-8-one], the concentration for half-maximal inhibition (IC50) was determined as 1 nM.
As for `C[C@H]1CNC(=O)c2cnn3ccc(nc23)N2CCC3CC32c2cc(F)cnc2O1` (stereo partly drawn) [Example 7, (1^3E,1^4E,5S)-3^5-fluoro-5-methyl-4-oxa-2^2,7-diaza-1(5,3)-pyrazolo[1,5-a]pyrimidina-3(3,2)-pyridina-2(2,1)-bicyclo[3.1.0]hexanacyclooctaphan-8-one], the IC50 came to 1 nM.
`C[C@@H]1CCc2ccc(F)cc2C23CC2CCN3c2ccc3ncc(n3n2)C(=O)N1` (single isomer, unassigned) [Example 33A] registered an IC50 of 1 nM.
The compound `C[C@H]1CNC(=O)c2cnc3ccc(nn23)N2CCC3CC32c2cc(F)cnc2O1` (stereo partly drawn) [Example 34, (5S,E)-3^5-fluoro-5-methyl-4-oxa-2^2,7-diaza-1(6,3)-imidazo[1,2-b]pyridazina-3(3,2)-pyridina-2(2,1)-bicyclo[3.1.0]-hexanacyclooctaphan-8-one] yielded a half-inhibitory concentration (IC50) of 1 nM.
Compound `C[C@@H]1CCc2ccc(F)cc2C2(CC2)N(C)c2ccc3ncc(n3n2)C(=O)N1` [Example 56, (7′R,E)-5′-fluoro-2′,7′-dimethylspiro-[cyclopropane-1,3′-2,8-diaza-1(6,3)-imidazo[1,2-b]pyridazina-4(1,2)-benzenacyclononaphan]-9′-one] showed an IC50 of 3 nM.
The compound `C[C@@H]1COc2ccc(F)cc2C23CC2CCN3c2ccn3ncc(c3n2)C(=O)N1` (stereo partly drawn) [Example 1, (1^3E,1^4E,6R)-3^5-fluoro-6-methyl-4-oxa-2^2,7-diaza-1(5,3)-pyrazolo[1,5-a]pyrimidina-2(2,1)-azabicyclo[3.1.0]hexana-3(1,2)-benzenacyclooctaphan-8-one] yielded an IC50 of 1 nM.
The compound `C[C@@H]1CNC(=O)c2cnn3ccc(nc23)NC2(CC2)c2cc(F)cnc2O1` [Example 42, (R,3′E,4′E)-5′-fluoro-6′-methylspiro-[cyclopropane-1,3′-5-oxa-2,8-diaza-1(5,3)-pyrazolo[1,5-a]pyrimidina-4(3,2)-pyridina-cyclononaphan]-9′-one] gave a half-inhibitory concentration (IC50) of 3 nM.
